From patent publication US12649751B2 (Arcus Biosciences, Inc., priority 2022, dated 2026)

Each compound was assayed against HPK1 (Homo sapiens, UniProt Q92918) (assay: HPK1 Biochemical Assay (ADP-Glo luminescence; low ATP 10 μM or high ATP 200 μM)). Details: 2 nM HPK1, 10 μM ATP; read-out: Biochemical Potency (low ATP).
Experimental: Dose-response assays were performed in Corning® Low Volume 384-well assay plates containing 100 nL of 22 serial 2-fold compound dilutions. Wells containing DMSO alone were used as negative control. A kinase mixture (5 μL) containing 2 nM HPK1 (or 5 nM for high ATP assay) in assay buffer (50 mM Hepes pH 7.4, 10 mM MgCl2, 0.01% Brij-15, 0.01% bovine serum albumin, and 1 mM dithiothreitol) was added to the assay plates and incubated at 25° C. for 1 hour. Wells without HPK1 were used as positive control. A […] of 10 μM ATP (or 200 μM for high ATP) and 0.2 μg/μL […] was then added to the wells, resulting in a 10 μL total reaction volume. Following incubation of the assay plates at 25° C. for 1 hour, 10 μL of ADP-Glo reagent was added to the wells and the plates were incubated at 25° C. for a further 40 minutes (or 1 hour for high ATP assay). Finally, 20 μL of Kinase Detection Reagent was added, and the plates were incubated for another 30 minutes at 25° C. An Envision plate reader was then used to detect the luminescence signals. IC50 values were determined by fitting the data to a standard 4-parameter logistic equation. The results are summarized in the Biochemical Potency columns of Tables 4 and 5 below (Biochemical Potency (high ATP); Biochemical Potency (low ATP)).

HPK1, sequence (Q92918 whole entry, species assumed): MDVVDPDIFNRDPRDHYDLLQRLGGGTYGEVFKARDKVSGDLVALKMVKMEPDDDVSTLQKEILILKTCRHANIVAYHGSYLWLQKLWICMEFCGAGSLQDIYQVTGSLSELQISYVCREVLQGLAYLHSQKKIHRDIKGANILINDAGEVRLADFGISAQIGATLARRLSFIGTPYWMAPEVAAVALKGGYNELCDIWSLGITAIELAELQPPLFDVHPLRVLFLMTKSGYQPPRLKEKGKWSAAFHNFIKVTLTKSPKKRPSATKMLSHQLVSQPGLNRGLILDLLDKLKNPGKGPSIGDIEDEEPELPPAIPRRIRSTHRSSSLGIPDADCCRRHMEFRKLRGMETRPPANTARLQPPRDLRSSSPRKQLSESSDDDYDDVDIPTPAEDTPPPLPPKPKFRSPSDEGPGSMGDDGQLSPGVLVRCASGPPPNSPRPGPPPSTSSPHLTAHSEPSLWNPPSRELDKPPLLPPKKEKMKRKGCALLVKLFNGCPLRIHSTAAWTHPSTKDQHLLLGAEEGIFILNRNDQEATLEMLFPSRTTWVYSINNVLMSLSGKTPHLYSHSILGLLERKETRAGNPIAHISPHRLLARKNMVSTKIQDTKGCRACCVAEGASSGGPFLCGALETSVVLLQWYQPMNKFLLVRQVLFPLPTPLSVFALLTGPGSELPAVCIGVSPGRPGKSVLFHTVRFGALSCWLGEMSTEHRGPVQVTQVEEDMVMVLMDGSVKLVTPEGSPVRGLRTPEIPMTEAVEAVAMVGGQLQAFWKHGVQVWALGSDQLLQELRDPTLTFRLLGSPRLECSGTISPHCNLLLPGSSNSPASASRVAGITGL

Compound	IC50
Fc1cccc(F)c1-c1nc2cc(Nc3ccc(N4CCC(F)(F)C4)c(CN4CCCC4)n3)ncc2s1 [Example 11, N-[2-(2,6-Difluorophenyl)-[1,3]thiazolo[5,4-c]pyridin-6-yl]-5-(3,3-difluoropyrrolidin-1-yl)-6-[(pyrrolidin-1-yl)methyl]pyridin-2-amine]	100 to 1000 nM
CN1C[C@@H]2C[C@H]1CN2c1ccnc(Nc2cc3nc(-c4cccc(S(C)(=O)=O)c4)sc3cn2)n1 [Example 244, N-[2-(3-Methanesulfonylphenyl)-[1,3]thiazolo[5,4-c]pyridin-6-yl]-4-[(1S,4S)-5-methyl-2,5-diazabicyclo[2.2.1]heptan-2-yl]pyrimidin-2-amine]	100 to 1000 nM
Cc1cccnc1-c1nc2cc(Nc3cccc(N4CC5CC(C4)N5C)n3)ncc2s1 [Example 98, 6-{6-Methyl-3,6-diazabicyclo[3.1.1]heptan-3-yl}-N-[2-(3-methylpyridin-2-yl)-[1,3]thiazolo[5,4-c]pyridin-6-yl]pyridin-2-amine]	< 100 nM
Cc1cccnc1-c1nc2cc(Nc3nccc(N4C[C@@H]5C[C@H]4CN5)n3)ncc2s1 [Example 240, 4-[(1S,4S)-2,5-Diazabicyclo[2.2.1]heptan-2-yl]-N-[2-(3-methylpyridin-2-yl)-[1,3]thiazolo[5,4-c]pyridin-6-yl]pyrimidin-2-amine]	100 to 1000 nM
Cc1cc(Nc2cc3nc(-c4ccnn4C)sc3cn2)nc(O[C@H]2CCNC2)c1 [Example 181, 4-Methyl-N-[2-(1-methyl-1H-pyrazol-5-yl)-[1,3]thiazolo[5,4-c]pyridin-6-yl]-6-[(3S)-pyrrolidin-3-yloxy]pyridin-2-amine]	< 100 nM
Cc1cccnc1-c1nc2cc(Nc3cccc(N4C[C@@H]5C[C@H]4CN5C4CCOCC4)n3)ncc2s1 [Example 117, N-[2-(3-Methylpyridin-2-yl)-[1,3]thiazolo[5,4-c]pyridin-6-yl]-6-[(1S,4S)-5-(oxan-4-yl)-2,5-diazabicyclo[2.2.1]heptan-2-yl]pyridin-2-amine]	< 100 nM

The next lines start with the values.

IC50	Compound
< 100 nM	CN1C[C@@H]2C[C@H]1CN2c1cncc(Nc2cc3nc(-c4cccc(C(C)(C)O)c4)sc3cn2)n1 [Example 152, 2-{3-[6-({6-[(1S,4S)-5-Methyl-2,5-diazabicyclo[2.2.1]heptan-2-yl]pyrazin-2-yl}amino)-[1,3]thiazolo[5,4-c]pyridin-2-yl]phenyl}propan-2-ol]
< 100 nM	Cc1cc(Nc2cc3nc(-c4ccnc(C)c4)sc3cn2)nc(N2CCC(C)(N)C2)c1 (stereo not drawn) [Example 73, 6-(3-Amino-3-methylpyrrolidin-1-yl)-4-methyl-N-[2-(2-methylpyridin-4-yl)-[1,3]thiazolo[5,4-c]pyridin-6-yl]pyridin-2-amine]
< 100 nM	Cc1cc(Nc2cc3nc(N4CCC(O)CC4)sc3cn2)nc(O[C@H]2CCNC2)c1 [Example 189, 1-(6-{[4-Methyl-6-((3S)-pyrrolidin-3-yloxy)pyridin-2-yl]amino}-[1,3]thiazolo[5,4-c]pyridin-2-yl)piperidin-4-ol]
< 100 nM	Cc1cccnc1-c1nc2cc(Nc3cccc(CN4CCCC4)n3)ncc2s1 [Example 52, N-[2-(3-Methylpyridin-2-yl)-[1,3]thiazolo[5,4-c]pyridin-6-yl]-6-[(pyrrolidin-1-yl)methyl]pyridin-2-amine]
< 100 nM	Fc1cccnc1-c1nc2cc(Nc3ccc(N4CCOCC4)c(CN4CCCC4)n3)ncc2s1 [Example 8, N-[2-(3-Fluoropyridin-2-yl)-[1,3]thiazolo[5,4-c]pyridin-6-yl]-5-(morpholin-4-yl)-6-[(pyrrolidin-1-yl)methyl]pyridin-2-amine]

Same assay, conditions: HPK1 ADP-Glo assay, low ATP (10 μM ATP, 2 nM HPK1); read-out: Biochemical Potency (low ATP)

IC50	Compound
< 100 nM	CC(C)(O)c1cc(-c2nc3cc(Nc4cc(C5CCOCC5)nc(N5C[C@@H]6C[C@H]5CN6)n4)ncc3s2)ccn1 [Example 441]
